# Laboratory results published in patent publication US9334289B2, “Cephem compound having catechol or pseudo-catechol structure” (SHIONOGI & CO., LTD., priority 2011, dated 2016).
# Where two headings read alike, the source gives them in different places.
# Tests used:
# Test in all cases: MIC, CLSI broth microdilution, Test Example 1
# Type in all cases: cell-based
# P. aeruginosa SR24 = conditions: for MIC: Pseudomonas aeruginosa
# A. baumannii SR27323 = conditions: for MIC: Acinetobacter baumannii
# Protocol: (§1) Measurement of Minimum Inhibitory Concentration (MIC: μg/mL) was conducted according to CLSI (Clinical and Laboratory Standards Institute) method, and the amount of bacteria for inoculation was 5×10^5 cfu/mL, and cation-adjusted Mueller Hinton broth containing human apo-transferrin was used as a test medium, and the experiment was conducted using broth microdilution method. The bacteria used are listed below.
# E. coli ATCCBAA-199 = conditions: SHV-3 ESBL producing strain, cation-adjusted Mueller Hinton broth containing human apo-transferrin, 5×10^5 cfu/mL; for MIC: Escherichia coli, ATCCBAA199, read-out: Minimum Inhibitory Concentration (MIC) E. coli ATCC BAA-199
# Protocol: as §1
# E. coli ATCCBAA-200 = conditions: SHV-4 ESBL producing strain, cation-adjusted Mueller Hinton broth containing human apo-transferrin, 5×10^5 cfu/mL; for MIC: Escherichia coli, ATCCBAA200, read-out: Minimum Inhibitory Concentration (MIC) E. coli ATCC BAA-200
# Protocol: as §1
# [1] = system: K. pneumoniae ATCCBAA-1705; conditions: for MIC: Klebsiella pneumoniae
# Protocol: as §1
# P. aeruginosa SR24837 = conditions: for MIC: Pseudomonas aeruginosa
# Protocol: as §1
# P. aeruginosa SR27060 = conditions: for MIC: Pseudomonas aeruginosa
# Protocol: as §1
# [2] = Ceftazidime resistance strain, cation-adjusted Mueller Hinton broth containing human apo-transferrin, 5×10^5 cfu/mL
# [3] = OXA-23, OXA-58 carbapenemase producing strain, cation-adjusted Mueller Hinton broth containing human apo-transferrin, 5×10^5 cfu/mL
# [4] = KPC-2 carbapenemase producing strain, cation-adjusted Mueller Hinton broth containing human apo-transferrin, 5×10^5 cfu/mL
# [5] = PER-1 ESBL producing strain, cation-adjusted Mueller Hinton broth containing human apo-transferrin, 5×10^5 cfu/mL
# [6] = IMP-1 MBL producing strain (carbapenem resistance strain), cation-adjusted Mueller Hinton broth containing human apo-transferrin, 5×10^5 cfu/mL
# [7] = SR24, Ceftazidime resistance strain, cation-adjusted Mueller Hinton broth containing human apo-transferrin, 5×10^5 cfu/mL, read-out: Minimum Inhibitory Concentration (MIC) P. aeruginosa SR24
# [8] = SR27323, OXA-23, OXA-58 carbapenemase producing strain, cation-adjusted Mueller Hinton broth containing human apo-transferrin, 5×10^5 cfu/mL, read-out: Minimum Inhibitory Concentration (MIC) A. baumannii SR27323
# [9] = ATCCBAA1705, KPC-2 carbapenemase producing strain, cation-adjusted Mueller Hinton broth containing human apo-transferrin, 5×10^5 cfu/mL, read-out: Minimum Inhibitory Concentration (MIC) K. pneumoniae ATCCBAA-1705
# [10] = SR24837, PER-1 ESBL producing strain, cation-adjusted Mueller Hinton broth containing human apo-transferrin, 5×10^5 cfu/mL, read-out: Minimum Inhibitory Concentration (MIC) P. aeruginosa SR24837
# [11] = SR27060, IMP-1 MBL producing strain (carbapenem resistance strain), cation-adjusted Mueller Hinton broth containing human apo-transferrin, 5×10^5 cfu/mL, read-out: Minimum Inhibitory Concentration (MIC) P. aeruginosa SR27060
Structure (SMILES),Minimum Inhibitory Concentration (MIC) P. aeruginosa SR24 (P. aeruginosa SR24; [2]),Minimum Inhibitory Concentration (MIC) A. baumannii SR27323 (A. baumannii SR27323; [3]),Minimum Inhibitory Concentration (MIC) E. coli ATCC BAA-199 (E. coli ATCCBAA-199),Minimum Inhibitory Concentration (MIC) E. coli ATCC BAA-200 (E. coli ATCCBAA-200),"Minimum Inhibitory Concentration (MIC) K. pneumoniae ATCCBAA-1705 [1, 4]",Minimum Inhibitory Concentration (MIC) P. aeruginosa SR24837 (P. aeruginosa SR24837; [5]),Minimum Inhibitory Concentration (MIC) P. aeruginosa SR27060 (P. aeruginosa SR27060; [6]),MIC (P. aeruginosa SR24; [7]),MIC (A. baumannii SR27323; [8]),MIC (E. coli ATCCBAA-199),MIC (E. coli ATCCBAA-200),"MIC [1, 9]",MIC (P. aeruginosa SR24837; [10]),MIC (P. aeruginosa SR27060; [11]),"MIC (P. aeruginosa SR24; SR24, read-out: Minimum Inhibitory Concentration (MIC) P. aeruginosa SR24)","MIC (A. baumannii SR27323; SR27323, read-out: Minimum Inhibitory Concentration (MIC) A. baumannii SR27323)","MIC ([1]; ATCCBAA1705, read-out: Minimum Inhibitory Concentration (MIC) K. pneumoniae ATCCBAA-1705)","MIC (P. aeruginosa SR24837; SR24837, read-out: Minimum Inhibitory Concentration (MIC) P. aeruginosa SR24837)","MIC (P. aeruginosa SR27060; SR27060, read-out: Minimum Inhibitory Concentration (MIC) P. aeruginosa SR27060)"
Nc1nc(C(=NOC(CC(=O)[O-])C(=O)[O-])C(=O)NC2C(=O)N3C(c4nnn[n-]4)=C(C[N+]4(CCNC(=O)c5ccc(O)c(O)c5Cl)CCCC4)CSC23)c(Cl)s1.[Na+].[Na+] (stereo not drawn) [Compound I-91],0.063 µg/mL,0.5 µg/mL,0.125 µg/mL,0.25 µg/mL,≦0.031 μg/ml,0.063 µg/mL,0.125 µg/mL,–,–,–,–,–,–,–,–,–,–,–,–
CC(C)(O/N=C(\C(=O)N[C@@H]1C(=O)N2C(c3nnn[n-]3)=C(C[N+]3(C)[C@@H]4CC[C@H]3C[C@@H](NC(=O)c3cc(O)c(O)c(F)c3)C4)CS[C@H]12)c1csc(N)n1)C(=O)[O-].[Na+] (stereo partly drawn) [Compound I-6],–,–,–,–,–,–,–,0.25 µg/mL,2 µg/mL,0.25 µg/mL,0.5 µg/mL,≤ 0.031 µg/mL,1 µg/mL,0.5 µg/mL,–,–,–,–,–
CC(C)(O/N=C(\C(=O)N[C@@H]1C(=O)N2C(c3nnn[n-]3)=C(C[N+]3(CCNC(=O)c4ccc(O)c(O)c4F)CCCC3)CS[C@H]12)c1csc(N)n1)C(=O)[O-].[Na+] [Compound I-54],–,–,–,–,–,–,–,≤ 0.031 µg/mL,1 µg/mL,0.25 µg/mL,0.5 µg/mL,≤ 0.031 µg/mL,0.25 µg/mL,0.25 µg/mL,–,–,–,–,–
CC(C)(O/N=C(\C(=O)N[C@@H]1C(=O)N2C(c3nnn[n-]3)=C(Cn3cc[n+](CCNC(=O)c4ccc(O)c(O)c4Cl)c3)CS[C@H]12)c1csc(N)n1)C(=O)[O-].[Na+] [Compound I-74],–,–,–,–,–,–,–,0.125 µg/mL,0.5 µg/mL,0.063 µg/mL,0.125 µg/mL,≤ 0.031 µg/mL,0.5 µg/mL,0.25 µg/mL,–,–,–,–,–
CC(C)(O/N=C(\C(=O)N[C@@H]1C(=O)N2C(c3nnn[n-]3)=C(C[n+]3ccc(CNC(=O)c4ccc(O)c(O)c4Cl)cc3)CS[C@H]12)c1csc(N)n1)C(=O)[O-].[Na+] [Compound I-71],–,–,–,–,–,–,–,–,–,0.25 µg/mL,0.5 µg/mL,–,–,–,0.063 µg/mL,1 µg/mL,≤ 0.031 µg/mL,1 µg/mL,0.25 µg/mL
CC(C)(O/N=C(\C(=O)N[C@@H]1C(=O)N2C(c3nnn[n-]3)=C(C[n+]3cccc(NC(=O)c4ccc(O)c(O)c4Cl)c3)CS[C@H]12)c1csc(N)n1)C(=O)[O-].[Na+] [Compound I-73],–,–,–,–,–,–,–,0.125 µg/mL,0.25 µg/mL,0.063 µg/mL,0.125 µg/mL,≤ 0.031 µg/mL,0.25 µg/mL,0.25 µg/mL,–,–,–,–,–
CC(C)(O/N=C(\C(=O)N[C@@H]1C(=O)N2C(c3nnn[n-]3)=C(C[N+]3(CCNC(=O)c4ccc(O)c(O)c4Cl)CCCC3)C[S+]([O-])[C@H]12)c1csc(N)n1)C(=O)[O-].[Na+] (stereo partly drawn) [Compound I-7],–,–,–,–,–,–,–,2 µg/mL,16 µg/mL,0.25 µg/mL,0.5 µg/mL,0.063 µg/mL,1 µg/mL,4 µg/mL,–,–,–,–,–
CC(C)(O/N=C(\C(=O)N[C@@H]1C(=O)N2C(c3nnn[nH]3)=C(C[N+]3(CCNC(=O)c4cc(Cl)c(O)c(O)c4Cl)CCCC3)CS[C@H]12)c1csc(N)n1)C(=O)[O-] [Compound I-53],–,–,–,–,–,–,–,0.25 µg/mL,1 µg/mL,0.063 µg/mL,0.125 µg/mL,≤ 0.031 µg/mL,0.063 µg/mL,0.5 µg/mL,–,–,–,–,–
C[N+]1(CC2=C(c3nnn[n-]3)N3C(=O)[C@@H](NC(=O)/C(=N\O[C@@H](CC(=O)[O-])C(=O)[O-])c4csc(N)n4)[C@H]3SC2)[C@@H]2CC[C@H]1C[C@@H](NC(=O)c1ccc(O)c(O)c1Cl)C2.[Na+].[Na+] (stereo partly drawn) [Compound I-14],–,–,–,–,–,–,–,0.5 µg/mL,0.125 µg/mL,0.25 µg/mL,1 µg/mL,≤ 0.031 µg/mL,8 µg/mL,1 µg/mL,–,–,–,–,–
CC(C)(O/N=C(\C(=O)N[C@@H]1C(=O)N2C(c3nnn[nH]3)=C(C[n+]3ccc(NC(=O)c4ccc(O)c(O)c4Cl)c4ccccc43)CS[C@H]12)c1csc(N)n1)C(=O)[O-] [Compound I-78],–,–,–,–,–,–,–,0.125 µg/mL,0.25 µg/mL,0.25 µg/mL,0.5 µg/mL,≤ 0.031 µg/mL,0.125 µg/mL,0.25 µg/mL,–,–,–,–,–
CC(C)(O/N=C(\C(=O)N[C@@H]1C(=O)N2C(c3nnn[n-]3)=C(C[n+]3ccc(-c4ccc(O)c(O)c4Cl)cc3)CS[C@H]12)c1csc(N)n1)C(=O)[O-].[Na+] [Compound I-79],–,–,–,–,–,–,–,≤ 0.031 µg/mL,0.125 µg/mL,0.5 µg/mL,1 µg/mL,≤ 0.031 µg/mL,0.063 µg/mL,0.25 µg/mL,–,–,–,–,–
CC(C)(O/N=C(\C(=O)N[C@@H]1C(=O)N2C(c3nnn[n-]3)=C(C[n+]3ccc4cc(O)c(O)cc4c3)CS[C@H]12)c1csc(N)n1)C(=O)[O-].[Na+] [Compound I-77],–,–,–,–,–,–,–,≤ 0.031 µg/mL,0.125 µg/mL,≤ 0.031 µg/mL,0.063 µg/mL,≤ 0.031 µg/mL,≤ 0.031 µg/mL,0.25 µg/mL,–,–,–,–,–
CC(C)(O/N=C(\C(=O)N[C@@H]1C(=O)N2C(c3nnn[n-]3)=C(C[N+]34CCC[C@H]3CN(C(=O)c3cc(O)c(O)c(F)c3)CC4)CS[C@H]12)c1csc(N)n1)C(=O)[O-].[Na+] (stereo partly drawn) [Compound I-5],–,–,–,–,–,–,–,0.25 µg/mL,0.125 µg/mL,0.5 µg/mL,1 µg/mL,0.063 µg/mL,2 µg/mL,0.5 µg/mL,–,–,–,–,–
CC(C)(O/N=C(\C(=O)N[C@@H]1C(=O)N2C(c3nn[n-]n3)=C(C[N+]3(C)CCC(NC(=O)c4ccc(O)c(O)c4Cl)CC3)CS[C@H]12)c1csc(N)n1)C(=O)[O-].[Na+] (stereo partly drawn) [Compound I-47],–,–,–,–,–,–,–,0.125 µg/mL,0.25 µg/mL,0.5 µg/mL,1 µg/mL,0.063 µg/mL,0.5 µg/mL,1 µg/mL,–,–,–,–,–
C[N+](C)(CCNC(=O)c1ccc(O)c(O)c1Cl)CC1=C(c2nnn[n-]2)N2C(=O)C(NC(=O)C(=NOC(CC(=O)[O-])C(=O)[O-])c3csc(N)n3)C2SC1.[Na+].[Na+] (stereo not drawn) [Compound I-92],0.25 µg/mL,0.5 µg/mL,0.063 µg/mL,0.125 µg/mL,≦0.031 μg/ml,0.25 µg/mL,2 µg/mL,–,–,–,–,–,–,–,–,–,–,–,–
